pIC50: −log10 of the molar value.
Key:
[1] = target: Serine/threonine-protein kinase AKT (Homo sapiens, UniProt P31751+Q9Y243+P31749); assay: Inhibition of Akt (unknown origin); assay type: protein assay
[2] = Inhibition of p70S6K (unknown origin); parameters: species or system Homo sapiens
[3] = target: Voltage-gated inwardly rectifying potassium channel KCNH2 (Homo sapiens, UniProt Q12809); assay: Inhibition of human ERG by patch clamp assay
[4] = Inhibition of Akt/p70S6K in human MDA-MB-436 cells assessed as inhibition of S6 phosphorylation; assay type: cell-based
[5] = target: hERG (KCNH2) (Homo sapiens, UniProt Q12809); assay: Inhibition of human ERG at 10 uM by patch clamp assay
hERG (KCNH2), sequence (Q12809 whole entry): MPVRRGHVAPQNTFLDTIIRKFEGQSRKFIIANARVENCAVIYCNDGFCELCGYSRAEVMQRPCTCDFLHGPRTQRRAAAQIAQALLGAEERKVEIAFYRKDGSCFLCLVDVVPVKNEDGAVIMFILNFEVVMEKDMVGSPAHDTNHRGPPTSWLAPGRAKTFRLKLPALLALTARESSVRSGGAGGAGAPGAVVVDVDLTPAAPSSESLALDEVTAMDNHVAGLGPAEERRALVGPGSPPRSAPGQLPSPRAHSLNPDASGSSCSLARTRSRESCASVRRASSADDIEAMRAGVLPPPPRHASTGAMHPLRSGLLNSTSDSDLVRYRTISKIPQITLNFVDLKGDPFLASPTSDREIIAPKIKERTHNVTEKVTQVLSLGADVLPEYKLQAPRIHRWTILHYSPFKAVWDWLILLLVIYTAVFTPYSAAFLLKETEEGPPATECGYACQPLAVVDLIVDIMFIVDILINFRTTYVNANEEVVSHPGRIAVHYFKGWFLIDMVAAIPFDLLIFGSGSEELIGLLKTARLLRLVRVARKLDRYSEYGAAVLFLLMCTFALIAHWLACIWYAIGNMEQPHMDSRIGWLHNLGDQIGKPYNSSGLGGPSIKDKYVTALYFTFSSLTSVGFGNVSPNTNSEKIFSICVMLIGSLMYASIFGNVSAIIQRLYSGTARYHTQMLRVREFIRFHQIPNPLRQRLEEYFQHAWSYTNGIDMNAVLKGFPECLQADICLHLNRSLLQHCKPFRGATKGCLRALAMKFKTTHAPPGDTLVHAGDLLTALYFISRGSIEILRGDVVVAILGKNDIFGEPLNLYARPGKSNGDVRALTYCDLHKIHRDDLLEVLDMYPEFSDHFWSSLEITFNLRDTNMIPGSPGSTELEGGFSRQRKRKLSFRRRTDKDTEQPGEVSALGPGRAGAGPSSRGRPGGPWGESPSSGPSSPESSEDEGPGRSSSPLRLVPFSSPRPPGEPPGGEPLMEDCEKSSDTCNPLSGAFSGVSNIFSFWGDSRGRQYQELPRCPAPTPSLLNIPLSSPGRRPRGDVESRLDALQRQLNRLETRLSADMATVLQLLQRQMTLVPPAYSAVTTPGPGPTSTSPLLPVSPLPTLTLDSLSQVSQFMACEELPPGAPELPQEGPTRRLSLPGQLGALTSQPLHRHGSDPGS

Voltage-gated inwardly rectifying potassium channel KCNH2, sequence (Q12809 whole entry): as above

| SMILES | IC50 [1] | pIC50 [2] | pIC50 [3] | pIC50 [4] | inhibition at 10 µM [5] |
| --- | --- | --- | --- | --- | --- |
| C=Cc1c(N)ncnc1N1CCC(c2nc(-c3ccc(F)c(C(F)(F)F)c3)cn2CCN2CCC2)CC1 | 4.2 nM | 8.59 | 6.03 | – | – |
| C=Cc1c(N)ncnc1N1CCC(c2nc(-c3ccc(F)c(C(F)(F)F)c3)cn2CCN(C)C)CC1 | 9.1 nM | 8.46 | 5.96 | – | – |
| Nc1ncnc(N2CCC(c3nc(-c4ccc(F)c(C(F)(F)F)c4)cn3CCN3CCCCC3)CC2)c1-c1ccc(F)cc1 | 350 nM | 7.74 | – | – | – |
| CN(C)CCn1cc(-c2ccc(F)c(C(F)(F)F)c2)nc1C1CCN(c2ncnc(N)c2-c2ccc(F)cc2)CC1 | 230 nM | 8.14 | 5.92 | – | – |
| NCC(c1ccc(F)c(C(F)(F)F)c1)N1CCN(c2ncnc(N)c2-c2ccc(F)cc2)CC1 (configuration not stated) | > 1000 nM | 7.85 | – | 5.54 | – |
| Cn1cc(-c2ccc(F)c(C(F)(F)F)c2)nc1C1CCN(c2ncnc(N)c2-c2ccccc2F)CC1 | > 1000 nM | 8.52 | – | 6.10 | – |
| CN(C)CCn1cc(-c2ccc(F)c(C(F)(F)F)c2)nc1C1CCN(c2ncnc(N)c2C(N)=O)CC1 | 84 nM | 8.46 | 5.40 | 4.05 | – |
| Cn1cc(-c2ccc(F)c(C(F)(F)F)c2)nc1C1CCN(c2ncnc(N)c2C#N)CC1 | 260 nM | 8.89 | – | 6.52 | – |
| Nc1ncnc(N2CCN(C(CN3CCC3)c3ccc(C(F)(F)F)cc3)CC2)c1-c1ccc(F)cc1 (configuration not stated) | > 1000 nM | 8.38 | – | 5.82 | – |
| N#Cc1c(N)ncnc1N1CCC(c2nc(-c3ccc(F)c(C(F)(F)F)c3)cn2CCN2CCC2)CC1 | 2.2 nM | 9.10 | – | 4.28 | – |
| Cn1cc(-c2ccc(F)c(C(F)(F)F)c2)nc1C1CCN(c2ncnc(N)c2C(N)=O)CC1 | 1600 nM | 8.52 | 5.72 | 5.64 | – |
| COc1c(N)ncnc1N1CCC(c2nc(-c3ccc(F)c(C(F)(F)F)c3)cn2C)CC1 | 518 nM | 8.66 | – | 5.92 | – |
| Cn1cc(-c2ccc(F)c(C(F)(F)F)c2)nc1C1CCN(c2ncnc(N)c2-c2ccncc2)CC1 | 930 nM | 8.70 | – | 6.40 | – |
| NCC(c1ccc(C(F)(F)F)cc1)N1CCN(c2ncnc(N)c2-c2ccc(F)cc2)CC1 (configuration not stated) | 350 nM | 8.66 | – | 6.40 | – |
| Nc1ncnc(N2CCC(c3nc(-c4ccc(F)c(C(F)(F)F)c4)cn3CCN3CCC3)CC2)c1C1CCC1 | 7.3 nM | 8.22 | 5.89 | – | – |
| Cn1cc(-c2ccc(F)c(C(F)(F)F)c2)nc1C1CCN(c2ncnc3[nH]ncc23)CC1 [LY-2584702] | – | – | – | – | 29% |

— ChEMBL document CHEMBL4823315 (Bioorg Med Chem Lett, 2021)
